According to article PMC7408493, “Implication of Opioid Receptors in the Antihypertensive Effect of a Novel Chicken Foot-Derived Peptide” (Biomolecules, 2020):
Ends that are not written are not given here.

Assays:
Assay type in all cases: in vitro ADME
porcine pepsin = target: T1, porcine pepsin (Sus scrofa, UniProt P00791); test: In vitro simulated gastric digestion (G60); settings: 60 min
T1 construct: purchased Sigma-Aldrich (Madrid, Spain)
Protocol: For the in vitro simulated peptide GI digestion, a two-stage hydrolysis process was carried out according to Martos et al.. […] was dissolved in simulated gastric fluid (35 mM NaCl at pH 2 for 15 min) and posteriorly subjected to digestion by porcine pepsin (E.C. 3.4.23.1, 3440 units/mg) at an enzyme/substrate ratio of 1: 20 w/w at 37 °C for 60 min. Gastric digestion with pepsin was stopped by adding 1 M NaHCO3 and pH was adjusted to 7.0 with NaOH 1 M (final protein concentration of 5 mg/mL). Aliquots of this gastric digest were collected (G60) and stored at −20 °C until analysis. Duodenal digestions were performed by using, as the starting material, the obtained gastric digests, with the addition of 1 M CaCl2, 0.25 M bis-Tris pH 6.5, 0.25 M bis-Tris pH 6.5, and a 0.125 M bile salts mixture containing equimolar quantities of sodium taurocholate and glycodeoxycholic acid. Posteriorly, the duodenal enzymes trypsin (EC 232-650-8, 10100 BAEE units/mg protein), α-chymotrypsin (EC 232-671-2; 55 units/mg protein), porcine pancreatic lipase (EC 232-619-9) and colipase (EC 259-490-1), prepared in 35 mM NaCl adjusted to pH 7, were added to the solution. Duodenal digestion was carried out at pH 7, 37 °C during 60 (D60). Then, enzymes were inactivated by heating at 95 °C for 10 min in a water bath, followed by cooling to room temperature. Triplicates of aliquots at each time point were collected and stored at −20 °C until analysis.
(§1) Samples obtained from in vitro peptide simulated digestion and Caco-2 monolayers were diluted 10 times with water (0.1% FA) and centrifuged (15,000 rpm, 15 min, 4 °C). Supernatants were directly analyzed by UHPLC-HRMS to avoid the loss of polar peptide fragments. Extensive clean-up or pre-concentration procedures were not necessary due to the high concentration of peptide and low matrix complexity than plasma samples.
(§2) The obtained purified solutions from plasma and peptide digests G60 and D60 and from AP and BL chambers in Caco-2 experiment were analyzed using a UHPLC 1290 Infinity II Series coupled to a QqQ 6490 Series (Agilent Technologies, Santa Clara, CA, USA) for tandem mass experiments or a qTOF 6550 Series (Agilent Technologies) for high-resolution mass spectrometry experiments. Chromatographic separation of peptide or their fragments were performed using a Kinetex 2.6 µm EVO C18 column (150 × 2.1 mm, […]) from (Phenomenex, Torrance, USA) as stationary phase and water containing 0.1% formic acid (solvent A) and acetonitrile (solvent B) as mobile phase. The separation was performed in gradient elution as follows: isocratic; 0–0.5 min, 2 % B; 0.5–1 min, 2–6% B; 1–5 min, 6–15% B; 5–6 min, 15–35% B; 6–10 min, 35–98% B; 10–12 min, 98% B isocratic; 12–12.10, 98–2% B. For all runs, 10 μL of the sample (4 °C) was injected, and the flow rate was 0.350 mL/min and the column temperature was 25 °C.
(§3) For in vitro simulated digestion experiments and Caco-2 monolayer samples, qTOF instrument was used to investigate the presence of unknown peptide fragments and previously in silico predicted peptide fragments by means of its accurate mass. Peptide and its fragments were semi-quantified using the chromatographic peak area observed in the extracted ion chromatograms using a 20 ppm mass window.

[1] = tested on: trypsin, α-chymotrypsin, porcine pancreatic lipase and colipase; test: In vitro simulated duodenal digestion (D60); settings: 60 min simulated duodenal digestion, pH 7, 37 °C
Protocol: For the in vitro simulated peptide GI digestion, a two-stage hydrolysis process was carried out according to Martos et al.. […] was dissolved in simulated gastric fluid (35 mM NaCl at pH 2 for 15 min) and posteriorly subjected to digestion by porcine pepsin (E.C. 3.4.23.1, 3440 units/mg) at an enzyme/substrate ratio of 1: 20 w/w at 37 °C for 60 min. Gastric digestion with pepsin was stopped by adding 1 M NaHCO3 and pH was adjusted to 7.0 with NaOH 1 M (final protein concentration of 5 mg/mL). Aliquots of this gastric digest were collected (G60) and stored at −20 °C until analysis. Duodenal digestions were performed by using, as the starting material, the obtained gastric digests, with the addition of 1 M CaCl2, 0.25 M bis-Tris pH 6.5, 0.25 M bis-Tris pH 6.5, and a 0.125 M bile salts mixture containing equimolar quantities of sodium taurocholate and glycodeoxycholic acid. […]
Samples obtained from in vitro peptide simulated digestion and Caco-2 monolayers were diluted 10 times with water (0.1% FA) and centrifuged (15,000 rpm, 15 min, 4 °C). Supernatants were directly analyzed by UHPLC-HRMS to avoid the loss of polar peptide fragments. […]

Caco-2 cell monolayers = test: Transepithelial transport through Caco-2 monolayer; settings: 1 h, 37 °C, UHPLC-HRMS
Protocol: Caco-2 cells were obtained from Sigma-Aldrich and were grown Dulbecco’s modified minimum essential medium (DMEM), supplemented with 20% fetal bovine serum (FBS), […] L-glutamine, 100 U/mL penicillin and 100 μg/mL streptomycin at 37 °C in and 5% CO2. Cells were seeded onto Transwell inserts permeable membrane support (0.4 µm pore, 24 mm diameter, 4.7 cm^2 grown surface from Merck Co., Bedford, MA, USA) placed in six-well plates. The seeding density was 12,000 cell/cm^2. The medium was replaced every 2–3 days and cells were growing for 21 days. On the 21st day of the procedure, the integrity of the Caco-2 monolayer was assessed by the measurement of transepithelial electrical resistance (TEER) using a Millicell ERS-2 voltammeter (EMD Millipore, Darmstadt, Germany) selecting the ones with TEER values higher than 200 Ω/cm^2.
For the transport study, Caco-2 cells, maintained in DMEM, were gently rinsed with Hank’s balanced salt solution (HBSS) and equilibrated for 20 min at 37 °C prior to the transport study. Then, it was evaluated the transepithelial transport of the peptide […] (1 mM) dissolved in HBSS and the digests obtained in the in vitro simulated digestion (G60 and D60). […] or the peptide digests G60 and D60 were added to the apical (AP) chamber and were incubated for 1 h at 37 °C. After this time, triplicates of the AP chamber content and the basolateral (BL) chamber content were taken and stored at −80 °C until ultra-high performance liquid chromatography-high resolution mass spectrometry (UHPLC-HRMS) analyses.
as §1, §2, §3

T1 sequence (P00791 60-385): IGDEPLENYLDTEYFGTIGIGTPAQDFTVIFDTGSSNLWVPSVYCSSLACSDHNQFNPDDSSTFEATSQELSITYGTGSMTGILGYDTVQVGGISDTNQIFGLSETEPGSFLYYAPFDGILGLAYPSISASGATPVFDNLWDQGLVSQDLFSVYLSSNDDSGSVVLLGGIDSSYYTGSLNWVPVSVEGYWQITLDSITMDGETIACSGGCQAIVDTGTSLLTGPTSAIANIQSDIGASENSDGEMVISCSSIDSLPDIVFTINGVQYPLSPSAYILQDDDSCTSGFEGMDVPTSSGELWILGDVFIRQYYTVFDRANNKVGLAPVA

Sequence: AVFQHNCQE
- Resistance to gastric digestion (porcine pepsin; pepsin, pH 2, 37 °C, most intense signal in G60 was the native peptide): resistant to gastric digestion
- Area G60 (chromatographic peak area) (porcine pepsin; simulated gastric fluid 35 mM NaCl pH 2, porcine pepsin enzyme/substrate 1:20 w/w, 37 °C, UHPLC-HRMS extracted ion chromatogram, 20 ppm window, semi-quantified, triplicate aliquots): 5,236,186
- Fate after duodenal digestion [1]: mainly hydrolyzed into free amino acid residues
- G60 % Transport (Caco-2 cell monolayers; 21 days, TEER > 200 Ω/cm^2, gastric digest G60 added to apical chamber, AP to BL, HBSS, content in basolateral chamber in comparison to apical chamber, triplicates): 0.25%
- Absorption through the intestinal monolayer (Caco-2 cell monolayers; native peptide 1 mM in HBSS or digests in apical chamber): not absorbed through the intestinal monolayer
